According to patent publication US11987586B1 (TAKEDA PHARMACEUTICAL COMPANY LIMITED, priority 2022, dated 2024):

Molecular target: T1, human OX2 receptor (Homo sapiens, UniProt O43614)
T1 construct: expressed in transfected cells
T1 sequence (O43614 1-444): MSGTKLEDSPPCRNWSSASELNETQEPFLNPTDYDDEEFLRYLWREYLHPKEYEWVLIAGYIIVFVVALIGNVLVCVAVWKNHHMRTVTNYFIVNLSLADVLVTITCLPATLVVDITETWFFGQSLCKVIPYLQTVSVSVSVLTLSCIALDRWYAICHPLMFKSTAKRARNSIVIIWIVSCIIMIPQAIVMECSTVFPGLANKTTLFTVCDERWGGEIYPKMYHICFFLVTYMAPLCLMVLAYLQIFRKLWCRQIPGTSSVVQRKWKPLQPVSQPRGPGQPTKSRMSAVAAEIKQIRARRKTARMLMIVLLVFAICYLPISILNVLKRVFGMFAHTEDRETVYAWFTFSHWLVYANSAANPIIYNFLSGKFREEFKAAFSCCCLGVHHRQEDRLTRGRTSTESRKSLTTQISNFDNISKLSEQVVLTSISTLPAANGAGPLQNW
Test: Measurement of orexin type 2 receptor agonist activity (calcium fluorescence, Fluo-4, FDSS)
Type: cell-based
Conditions: 3 uM test compound; CHO cells expressing human OX2 receptor; DMSO = 0%, 10 nM orexin A (human) = 100%
Outline: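 Agonist activity (%) was normalised to the response to 10 nM final human orexin A (100%) and to the DMSO vehicle (0%). The response was measured as the Fluo-4 calcium signal, read kinetically over 1 min 40 s after compound addition to Fluo-4/probenecid-loaded stable CHO-K1 clones expressing human OX2 (aa 1-444).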

SMILES | OX2R agonist activity (3 uM, %) [%]
CCS(=O)(=O)N[C@H]1C[C@H]2CN(c3cnc4cccc(-c5c(F)cccc5F)n34)C(=O)N2C1 [Example 182, N-{(6S,7aS)-2-[5-(2,6-difluorophenyl)imidazo[1,2-a]pyridin-3-yl]-3-oxohexahydro-1H-pyrrolo[1,2-c]imidazol-6-yl}ethanesulfonamide] | 84
Cc1cc2onc(N3C[C@H]4N(C[C@@H](NS(C)(=O)=O)C4(F)F)C3=O)c2c(-c2c(F)cccc2F)c1F [Example 186, N-{(6R,7aR)-2-[4-(2,6-difluorophenyl)-5-fluoro-6-methyl-1,2-benzoxazol-3-yl]-7,7-difluoro-3-oxohexahydro-1H-pyrrolo[1,2-c]imidazol-6-yl}methanesulfonamide] | 101
CS(=O)(=O)N[C@@H]1CN2C(=O)N(c3noc4cc(OC(F)F)cc(-c5c(F)cc(F)cc5F)c34)C[C@@H]2C1(F)F [Example 193, N-{(6R,7aR)-2-[6-(difluoromethoxy)-4-(2,4,6-trifluorophenyl)-1,2-benzoxazol-3-yl]-7,7-difluoro-3-oxohexahydro-1H-pyrrolo[1,2-c]imidazol-6-yl}methanesulfonamide] | 103
CS(=O)(=O)N[C@H]1C[C@H]2CCN(c3noc4cccc(-c5c(F)cc(F)cc5F)c34)C(=O)N2C1 [Example 195] | 106
CS(=O)(=O)N[C@@H]1Cn2c(cn(-c3noc4nc(C5CC5)cc(-c5c(F)cccc5F)c34)c2=O)C1(F)F [Example 197, N-{(6R)-2-[6-cyclopropyl-4-(2,6-difluorophenyl)[1,2]oxazolo[5,4-b]pyridin-3-yl]-7,7-difluoro-3-oxo-2,5,6,7-tetrahydro-3H-pyrrolo[1,2-c]imidazol-6-yl}methanesulfonamide] | 115
CCOc1cc(-c2c(F)cccc2F)c2c(N3CC[C@H]4N(C[C@@H](NS(C)(=O)=O)C4(F)F)C3=O)noc2c1 [Example 199, N-{(4aR,6R)-2-[4-(2,6-difluorophenyl)-6-ethoxy-1,2-benzoxazol-3-yl]-5,5-difluoro-1-oxooctahydropyrrolo[1,2-c]pyrimidin-6-yl}methanesulfonamide] | 105
CS(=O)(=O)N[C@@H]1CN2C(=O)N(c3noc4cc(C(F)F)cc(-c5c(F)cc(F)cc5F)c34)CC[C@@H]2C1(F)F [Example 200, N-{(4aR,6R)-2-[6-(difluoromethyl)-4-(2,4,6-trifluorophenyl)-1,2-benzoxazol-3-yl]-5,5-difluoro-1-oxooctahydropyrrolo[1,2-c]pyrimidin-6-yl}methanesulfonamide] | 122
CCOc1cc2onc(N3CC[C@H]4N(C[C@@H](NS(C)(=O)=O)C4(F)F)C3=O)c2c(-c2c(F)cc(F)cc2F)c1F [Example 202, N-{(4aR,6R)-2-[6-ethoxy-5-fluoro-4-(2,4,6-trifluorophenyl)-1,2-benzoxazol-3-yl]-5,5-difluoro-1-oxooctahydropyrrolo[1,2-c]pyrimidin-6-yl}methanesulfonamide] | 99
O=C1N(c2noc3cccc(-c4c(F)cc(F)cc4F)c23)CC[C@H]2N1C[C@@H](NS(=O)(=O)CF)C2(F)F [Example 203, N-{(4aR,6R)-5,5-difluoro-1-oxo-2-[4-(2,4,6-trifluorophenyl)-1,2-benzoxazol-3-yl]octahydropyrrolo[1,2-c]pyrimidin-6-yl}-1-fluoromethanesulfonamide] | 114
CCS(=O)(=O)N[C@@H]1CN2C(=O)N(c3noc4ccc(F)c(-c5c(F)cc(F)cc5F)c34)CC[C@@H]2C1(F)F [Example 204, N-{(4aR,6R)-5,5-difluoro-2-[5-fluoro-4-(2,4,6-trifluorophenyl)-1,2-benzoxazol-3-yl]-1-oxooctahydropyrrolo[1,2-c]pyrimidin-6-yl}ethanesulfonamide] | 109
CCS(=O)(=O)N[C@H]1C[C@H]2CCN(c3noc4cccc(-c5c(F)cc(F)cc5F)c34)C(=O)N2C1 [Example 205, N-{(4aR,6S)-1-oxo-2-[4-(2,4,6-trifluorophenyl)-1,2-benzoxazol-3-yl]octahydropyrrolo[1,2-c]pyrimidin-6-yl}ethanesulfonamide] | 107

The remaining lines, values ahead:

OX2R agonist activity (3 uM, %) [%] | SMILES
89 | CS(=O)(=O)N[C@@H]1Cn2c(cn(-c3noc4cc(OC(F)(F)F)cc(-c5c(F)cc(F)cc5F)c34)c2=O)C1(F)F [Example 176, N-{(6R)-7,7-difluoro-3-oxo-2-[6-(trifluoromethoxy)-4-(2,4,6-trifluorophenyl)-1,2-benzoxazol-3-yl]-2,5,6,7-tetrahydro-3H-pyrrolo[1,2-c]imidazol-6-yl}methanesulfonamide]
109 | CCS(=O)(=O)N[C@@H]1Cn2c(cn(-c3noc4cc(OC(F)F)cc(-c5c(F)cc(F)cc5F)c34)c2=O)C1(F)F [Example 179, N-{(6R)-2-[6-(difluoromethoxy)-4-(2,4,6-trifluorophenyl)-1,2-benzoxazol-3-yl]-7,7-difluoro-3-oxo-2,5,6,7-tetrahydro-3H-pyrrolo[1,2-c]imidazol-6-yl}ethanesulfonamide]
100 | Cc1cc(-c2c(F)cccc2F)c2c(-n3cc4n(c3=O)C[C@@H](NS(C)(=O)=O)C4(F)F)noc2c1 [Example 180, N-{(6R)-2-[4-(2,6-difluorophenyl)-6-methyl-1,2-benzoxazol-3-yl]-7,7-difluoro-3-oxo-2,5,6,7-tetrahydro-3H-pyrrolo[1,2-c]imidazol-6-yl}methanesulfonamide]
101 | Cc1cc2onc(-n3cc4n(c3=O)C[C@@H](NS(C)(=O)=O)C4(F)F)c2c(-c2c(F)cc(F)cc2F)c1F [Example 184, N-{(6R)-7,7-difluoro-2-[5-fluoro-6-methyl-4-(2,4,6-trifluorophenyl)-1,2-benzoxazol-3-yl]-3-oxo-2,5,6,7-tetrahydro-3H-pyrrolo[1,2-c]imidazol-6-yl}methanesulfonamide]
104 | CS(=O)(=O)N[C@@H]1Cn2c(cn(-c3noc4cc(CO)c(F)c(-c5c(F)cc(F)cc5F)c34)c2=O)C1(F)F [Example 185, N-{(6R)-7,7-difluoro-2-[5-fluoro-6-(hydroxymethyl)-4-(2,4,6-trifluorophenyl)-1,2-benzoxazol-3-yl]-3-oxo-2,5,6,7-tetrahydro-3H-pyrrolo[1,2-c]imidazol-6-yl}methanesulfonamide]
103 | CCOc1cc(-c2c(F)cc(F)cc2F)c2c(-n3cc4n(c3=O)C[C@@H](NS(C)(=O)=O)C4(F)F)noc2c1 [Example 189, N-{(6R)-2-[6-ethoxy-4-(2,4,6-trifluorophenyl)-1,2-benzoxazol-3-yl]-7,7-difluoro-3-oxo-2,5,6,7-tetrahydro-3H-pyrrolo[1,2-c]imidazol-6-yl}methanesulfonamide]
96 | CCS(=O)(=O)N[C@@H]1Cn2c(cn(-c3noc4nc(C)cc(-c5c(F)cc(F)cc5F)c34)c2=O)C1(F)F [Example 190, N-{(6R)-7,7-difluoro-2-[6-methyl-4-(2,4,6-trifluorophenyl)[1,2]oxazolo[5,4-b]pyridin-3-yl]-3-oxo-2,5,6,7-tetrahydro-3H-pyrrolo[1,2-c]imidazol-6-yl}ethanesulfonamide]
98 | Cc1cc2onc(N3C[C@H]4N(C[C@@H](NS(C)(=O)=O)C4(F)F)C3=O)c2c(-c2c(F)cc(F)cc2F)n1 [Example 191, N-{(6R,7aR)-7,7-difluoro-2-[6-methyl-4-(2,4,6-trifluorophenyl)[1,2]oxazolo[4,5-c]pyridin-3-yl]-3-oxohexahydro-1H-pyrrolo[1,2-c]imidazol-6-yl}methanesulfonamide]
92 | CCOc1cc(-c2c(F)cccc2F)c2c(-n3cc4n(c3=O)C[C@@H](NS(C)(=O)=O)C4(F)F)noc2c1 [Example 194, N-{(6R)-2-[4-(2,6-difluorophenyl)-6-ethoxy-1,2-benzoxazol-3-yl]-7,7-difluoro-3-oxo-2,5,6,7-tetrahydro-3H-pyrrolo[1,2-c]imidazol-6-yl}methanesulfonamide]
106 | Cc1cc2onc(-n3cc4n(c3=O)C[C@@H](NS(C)(=O)=O)C4(F)F)c2c(-c2c(F)cccc2F)n1 [Example 196, N-{(6R)-2-[4-(2,6-difluorophenyl)-6-methyl[1,2]oxazolo[4,5-c]pyridin-3-yl]-7,7-difluoro-3-oxo-2,5,6,7-tetrahydro-3H-pyrrolo[1,2-c]imidazol-6-yl}methanesulfonamide]
112 | CCS(=O)(=O)N[C@@H]1Cn2c(cn(-c3noc4cc(C)nc(-c5c(F)cc(F)cc5F)c34)c2=O)C1(F)F [Example 198, N-{(6R)-7,7-difluoro-2-[6-methyl-4-(2,4,6-trifluorophenyl)[1,2]oxazolo[4,5-c]pyridin-3-yl]-3-oxo-2,5,6,7-tetrahydro-3H-pyrrolo[1,2-c]imidazol-6-yl}ethanesulfonamide]
114 | Cc1cc2onc(-n3cc4n(c3=O)C[C@@H](NS(=O)(=O)CF)C4(F)F)c2c(-c2c(F)cc(F)cc2F)n1 [Example 201, N-{(6R)-7,7-difluoro-2-[6-methyl-4-(2,4,6-trifluorophenyl)[1,2]oxazolo[4,5-c]pyridin-3-yl]-3-oxo-2,5,6,7-tetrahydro-3H-pyrrolo[1,2-c]imidazol-6-yl}-1-fluoromethanesulfonamide]
